Measurements taken from ChEMBL document CHEMBL1201862, “PubChem BioAssay data set” (2004).
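Interpolation was linear, between the two tested concentrations surrounding the appropriate level; five concentrations were tested over 48 hours in 96-well plates. At the GI50, growth is halved.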 Calls of active or inactive are those of the source. Rule as the data show it: active = GI50 up to about 1.1 µM and inactive = higher.

Tests used:
Test in all cases: NCI-60 cell line screen, 48 h
BT-549 = tested on: BT-549
CAKI-1 = tested on: CAKI-1
CCRF-CEM = tested on: CCRF-CEM
COLO 205 = tested on: COLO 205
HCC 2998 = tested on: HCC 2998
HCT-116 = tested on: HCT-116
HT-29 = tested on: HT-29
IGROV-1 = tested on: IGROV-1
K562 = tested on: K562
MCF7 = tested on: MCF7
MDA-N = tested on: MDA-N
Malme-3M = tested on: Malme-3M
NCI-H226 = tested on: NCI-H226
PC-3 = tested on: PC-3
SF-268 = tested on: SF-268
SK-MEL-28 = tested on: SK-MEL-28
SK-MEL-2 = tested on: SK-MEL-2
SR = tested on: SR
SW-620 = tested on: SW-620
A498 = tested on: A498

| Compound | GI50 (BT-549) | GI50 (CAKI-1) | GI50 (CCRF-CEM) | GI50 (COLO 205) | GI50 (HCC 2998) | GI50 (HCT-116) | GI50 (HT-29) | GI50 (IGROV-1) | GI50 (K562) | GI50 (MCF7) | GI50 (MDA-N) | GI50 (Malme-3M) | GI50 (NCI-H226) | GI50 (PC-3) | GI50 (SF-268) | GI50 (SK-MEL-28) | GI50 (SK-MEL-2) | GI50 (SR) | GI50 (SW-620) | GI50 (A498) |
| --- | --- | --- | --- | --- | --- | --- | --- | --- | --- | --- | --- | --- | --- | --- | --- | --- | --- | --- | --- | --- |
| COc1cc(-c2cc(=O)c3c(OC)c(OC)c(OC)cc3o2)c(OC)c(OC)c1OC | 51.5 µM (inactive) | > 75 µM (inactive) | 65.2 µM (inactive) | > 75 µM (inactive) | > 75 µM (inactive) | > 75 µM (inactive) | > 75 µM (inactive) | > 75 µM (inactive) | 39.1 µM (inactive) | > 75 µM (inactive) | > 75 µM (inactive) | > 75 µM (inactive) | > 75 µM (inactive) | 23.6 µM (inactive) | > 75 µM (inactive) | > 75 µM (inactive) | 45.6 µM (inactive) | 63.1 µM (inactive) | > 75 µM (inactive) | – |
| CCOC(=O)C1=C(C)N(c2ccc(C)cc2)C2(O)C=CC(O)=C3C(=O)c4ccccc4C(=O)C312 (stereo not given) | 19.2 µM (inactive) | 32.2 µM (inactive) | 5.05 µM (inactive) | 32.4 µM (inactive) | 29.3 µM (inactive) | 48.5 µM (inactive) | 25 µM (inactive) | 19.5 µM (inactive) | – | 23.3 µM (inactive) | 21.1 µM (inactive) | 20.6 µM (inactive) | 59.3 µM (inactive) | 25.1 µM (inactive) | 45.2 µM (inactive) | 24.9 µM (inactive) | 37.1 µM (inactive) | 0.635 µM (active) | 28.1 µM (inactive) | 29.4 µM (inactive) |
| C#C[C@]1(O)CC[C@H]2[C@@H]3CCC4=C/C(=N\OCCN5CCCC5)CC[C@]4(C)[C@H]3CC[C@@]21C | 16.3 µM (inactive) | 12.4 µM (inactive) | 14.6 µM (inactive) | 13.7 µM (inactive) | 16.6 µM (inactive) | 8.36 µM (inactive) | 12.7 µM (inactive) | 4.79 µM (inactive) | 5.12 µM (inactive) | 4.72 µM (inactive) | 3.25 µM (inactive) | 10.8 µM (inactive) | 20.6 µM (inactive) | 6.28 µM (inactive) | 13.5 µM (inactive) | 14.9 µM (inactive) | 9.18 µM (inactive) | 2.96 µM (inactive) | 13.5 µM (inactive) | 18.7 µM (inactive) |
| CC(C)C(OC(=O)c1ccc(NCc2cc(O)ccc2O)cc1)C(C)C | 0.547 µM (active) | 0.218 µM (active) | 0.102 µM (active) | 0.865 µM (active) | 2.96 µM (inactive) | 2.76 µM (inactive) | 3.34 µM (inactive) | 0.855 µM (active) | 1.29 µM (inactive) | 2.87 µM (inactive) | 2.39 µM (inactive) | 1.77 µM (inactive) | 1.29 µM (inactive) | 1.32 µM (inactive) | 1.87 µM (inactive) | 1.45 µM (inactive) | 2.35 µM (inactive) | 0.617 µM (active) | 1.96 µM (inactive) | 2.25 µM (inactive) |
| CN(C)c1cccc(F)c1C(=O)NC(=O)Nc1ccc(Cl)cc1 | 8.95 µM (inactive) | 3.78 µM (inactive) | 0.745 µM (active) | 2.21 µM (inactive) | 1.4 µM (inactive) | 1.77 µM (inactive) | 1.07 µM (active) | 3.78 µM (inactive) | 0.479 µM (active) | 2.17 µM (inactive) | 0.142 µM (active) | 1.76 µM (inactive) | 5.5 µM (inactive) | 2.83 µM (inactive) | 12 µM (inactive) | 17.6 µM (inactive) | 2.29 µM (inactive) | 0.218 µM (active) | 1.24 µM (inactive) | 11.5 µM (inactive) |
| OCc1ccn2c1[C@@H](O)CC2 | > 100 µM (inactive) | > 100 µM (inactive) | > 100 µM (inactive) | > 100 µM (inactive) | > 100 µM (inactive) | > 100 µM (inactive) | > 100 µM (inactive) | > 100 µM (inactive) | > 100 µM (inactive) | > 100 µM (inactive) | > 100 µM (inactive) | > 100 µM (inactive) | > 100 µM (inactive) | > 100 µM (inactive) | > 100 µM (inactive) | > 100 µM (inactive) | > 100 µM (inactive) | > 100 µM (inactive) | > 100 µM (inactive) | > 100 µM (inactive) |
| CC(=O)Nc1ccc(Nc2cc(O)nc(O)n2)cc1 | > 100 µM (inactive) | – | – | > 100 µM (inactive) | > 100 µM (inactive) | > 100 µM (inactive) | > 100 µM (inactive) | > 100 µM (inactive) | > 100 µM (inactive) | > 100 µM (inactive) | > 100 µM (inactive) | > 100 µM (inactive) | > 100 µM (inactive) | > 100 µM (inactive) | > 100 µM (inactive) | > 100 µM (inactive) | – | > 100 µM (inactive) | > 100 µM (inactive) | > 100 µM (inactive) |
